Tested on: a variety of test species
Assay: Post-emergence herbicidal activity
Type: in vivo
Set-up: key to ABUTH (Abutilon theophrasti) damage score / AMARE (Amaranthus retroflexus) damage score / ALOMY (Alopecurus myosuroides) damage score / ECHCG (Echinochloa crus-galli) damage score / ZEAMX (Zea mays) damage score / SOLNI (Solanum nigrum) damage score: 0 = no damage to plant, 5 = total damage to plant
Conditions: rate 1000 g/ha, evaluated after 13 days
Procedure, shortened: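 Plants grown for 8 days in pots were sprayed post-emergence with compound in acetone/water (50:50) containing 0.5% Tween 20. They were kept in a glasshouse at 24/16 °C day/night, 14 h light, 65% humidity, watered twice daily. Damage was scored after 13 days (0 none to 5 total).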

Row | SMILES | ABUTH (Abutilon theophrasti) damage score | ALOMY (Alopecurus myosuroides) damage score | AMARE (Amaranthus retroflexus) damage score | ECHCG (Echinochloa crus-galli) damage score | SETFA (Setaria faberi) damage score | ZEAMX (Zea mays) damage score
1 | COC1=C(C)C(=O)N(c2cc(C(C)(C)C)cnn2)C1O (stereo not drawn) [BD1, 1-(5-tert-butylpyridazin-3-yl)-2-hydroxy-3-methoxy-4-methyl-2H-pyrrol-5-one] | 5 | 4 | 5 | 5 | 5 | 1
2 | COC1=C(C)C(=O)N(c2cc(C(C)(C)C)c(Cl)nn2)C1O (stereo not drawn) [BD2] | 5 | 4 | 5 | 5 | 5 | 2
3 | COC1=C(C)C(=O)N(c2ccc(Cl)nn2)C1O (stereo not drawn) [BD3] | 1 | 1 | 2 | 1 | 2 | 0
4 | COC1=C(C)C(=O)N(c2cc(C(C)(C)CCl)c(Cl)nn2)C1O (stereo not drawn) [BD4] | 5 | 4 | 4 | 4 | 5 | 0
5 | COC1=C(C)C(=O)N(c2cc(C(C)C)c(OC)nn2)C1O (stereo not drawn) [BD5] | 5 | 5 | 5 | 5 | 5 | 3
6 | C=CCOc1nnc(N2C(=O)C(C)=C(OC)C2O)cc1C(C)C (stereo not drawn) [BD6] | 1 | 1 | 0 | 1 | 2 | 1
7 | CCOc1nnc(N2C(=O)C(C)=C(OC)C2O)cc1C(C)C (stereo not drawn) [BD7] | 5 | 5 | 5 | 5 | 5 | 3
8 | COC1=C(C)C(=O)N(c2cc(C(C)(C)F)c(Cl)nn2)C1O (stereo not drawn) [BD8] | 5 | 4 | 5 | 5 | 5 | 2
9 | COC1=C(C)C(=O)N(c2cc(C(C)(C)C)c(-c3ccc(F)cc3)nn2)C1O (stereo not drawn) [BD9] | 2 | 3 | 5 | 2 | 4 | 1
10 | COC1=C(C)C(=O)N(c2cc(C(C)(C)C)c(OC)nn2)C1O (stereo not drawn) [BD10] | 5 | 5 | 5 | 5 | 5 | 4
11 | COC1=C(C)C(=O)N(c2cc(C)c(Cl)nn2)C1O (stereo not drawn) [BD11] | 4 | 2 | 2 | 1 | 2 | 0
12 | COC1=C(C)C(=O)N(c2cc(C(C)(C)C)c(N3CC(F)(F)C3)nn2)C1O (stereo not drawn) [BD12] | 5 | 4 | 5 | 5 | 5 | 2
13 | COC1=C(C)C(=O)N(c2ccc(C(=O)NC(C)(C)C)nn2)C1O (stereo not drawn) [BD13] | 5 | 5 | 5 | 5 | 5 | 4
14 | COC1=C(C)C(=O)N(c2cc(C(C)(C)C)c(-c3cccc(C#N)c3)nn2)C1O (stereo not drawn) [BD14] | 4 | 4 | 5 | 3 | 4 | 1
15 | CC1=C(Cl)C(O)N(c2cc(C(C)(C)C)ncn2)C1=O (stereo not drawn) [CA1] | 1 | 1 | 3 | 1 | 2 | 1
16 | CC1=C(Cl)C(O)N(c2cc(C(F)(F)F)ncn2)C1=O (stereo not drawn) [CA2] | 0 | 1 | 0 | 0 | 0 | 0
17 | CCC1=C(Cl)C(O)N(c2cc(C(C)(C)C#N)ncn2)C1=O (stereo not drawn) [CA3] | 1 | 0 | 1 | 0 | 0 | 0
18 | CCCC1=C(Cl)C(O)N(c2cc(C(C)(C)C#N)ncn2)C1=O (stereo not drawn) [CA4] | 2 | 1 | 1 | 0 | 1 | 1
19 | CC1=C(Br)C(O)N(c2cc(C(F)(F)F)ncn2)C1=O (stereo not drawn) [CB1] | 1 | 1 | 1 | 1 | 0 | 1
20 | COC1=C(C)C(=O)N(c2cc(N3CCCCC3)ncn2)C1O (stereo not drawn) [CD1, 2-hydroxy-3-methoxy-4-methyl-1-[6-(1-piperidyl)pyrimidin-4-yl]-2H-pyrrol-5-one] | 0 | 0 | 0 | 0 | 0 | 0
